Data from patent US20150307938A1, “METHOD TO IDENTIFY A NOVEL CLASS OF IMMUNOLOGIC ADJUVANTS” (Lancell, L.L.C., priority 2011, published 2015).

Tested on: PR8
Parameters: species or system mice
Conditions: mouse, in vivo

CCCCOC(=O)c1ccccc1C(=O)OCCCC [DBP, dibutylphthalate]
survival of a lethal dose of virus: mice survived a lethal dose of virus
